Test results from patent US4606911A, “Pharmaceutical composition for the prevention of dental caries” (Rohto Pharmaceutical Co. Ltd., priority 1984, dated 1986).
Values after ≈ are worked out from the molar mass of the structure shown. “Also recorded” adds a separate entry of the source.

Columns and labels:
Format in all cases: cell-based
[1] = tested on: Pseudomonas aeruginosa KM338; test: Antibacterial activity (MIC, growth in BHI medium); design: key to Antibacterial activity (growth): -: grow; ±: slightly grow; +: not grow
Description: (§1) To a test tube was charged 3.8 ml of Brain Heart Infusion (BHI) medium, and 100 μl of a sample solution containing oleanolic, ursolic or glycyrrhetic acid and 100 μl of pre-incubated culture of bacterium selected from those listed below were added thereto. The mixture was incubated at 37° C. and then allowed to stand over night. The extent of the growth of bacterium was observed after two or five days. The MIC value was determined for each sample and summarized in Table 2. |Pseudomonas aeruginosa KM338

Esherichia coli K12 = test: Antibacterial activity (MIC, growth in BHI medium); design: key to Antibacterial activity (growth): -: grow; ±: slightly grow; +: not grow
Description: as §1, with “days.” for “days. The MIC value was determined for each sample and summarized in Table 2. |Pseudomonas aeruginosa KM338”
Esherichia coli K12 (Gram negative)

[2] = tested on: Staphylococcus aureus 209P; test: Antibacterial activity (MIC, growth in BHI medium); design: key to Antibacterial activity (growth): -: grow; ±: slightly grow; +: not grow
Description: as §1, with “|Staphylococcus aureus […]” for “|Pseudomonas aeruginosa KM338”

[3] = tested on: Streptococcus mutans OMZ 176; test: Antibacterial activity (MIC, growth in BHI medium); design: key to Antibacterial activity (growth): -: grow; ±: slightly grow; +: not grow; conditions: for antibacterial activity to S. mutans (in words): text statement
Description: as §1, with “days.” for “days. The MIC value was determined for each sample and summarized in Table 2. |Pseudomonas aeruginosa KM338”
Streptococcus mutans OMZ 176

[4] = tested on: S. mutans OMZ 176 (serotype d); test: microbe, parasite or virus in culture
Description: The adherence-inhibiting activity of the triterpenes of the formula (I) was measured using an inner wall of a test tube in place of the surface of a tooth.
To 2.9 ml of BHI medium containing 5% sucrose in a test tube (i) are added 30 μl of a sample solution prepared by dissolving a compound of: the formula (I) in H2 O or dimethylsulfoxide (DMSO) and 100 μl of culture medium containing S. mutans OMZ 176 (serotype d) which was preincuvated at 37° C. for 24 hours in BHI medium, and the mixture is incubated at 37° C. for 20 hours, with the test tube being maintained at a slant of 30°. The test tube is revolved gently two or three times and the supernatant is transferred to another test tube (ii). To the first test tube (i) is added 3 ml of 50 mM phosphate buffer (pH 7.5), and the test tube is gently revolved two or three times. The resultant supernatant is transferred to the third test tube (iii). The test tubes (ii) and (iii) are each centrifuged and respective supernatants are discarded. To each of the test tubes (i), (ii) and (iii) is added 3 ml of 0.5M NaOH, and the test tubes are shaken to suspend bacterial cells. Absorbance of the resulting suspension is measured at 660 nm. The absorbances obtained with respect to the test tube (i), (ii) and (iii) are represented by Ab(i), Ab(ii) and Ab(iii), respectively. Ab(i) reflects the amount of the bacterial cells adhered to the wall of the test tube and Ab(ii) and Ab(iii) correspond to the amount of the bacterial cells not adhered to the wall.
The same procedure is repeated using 30 μl of distilled water or DMSO in place of the sample solution to obtain a control. The absorbance of the control is represented by Ab(Cont.).
Adherence percentage of bacteria is calculated from the following equation. [formula]
Adherence inhibitory percentage (AIP) is calculated using the adherence percentage according to the following equation. [formula]
The magnitude of adherence-inhibiting activity of each of the samples is shown, in Table 3, by the use of the following symbols: […]

[5] = tested on: Bacillus megaterium QM B1551; test: Antibacterial activity (MIC, growth in BHI medium); design: key to Antibacterial activity (growth): -: grow; ±: slightly grow; +: not grow
Description: as §1, with “|Bacillus megaterium QM B1551” for “|Pseudomonas aeruginosa KM338”

[6] = Streptococcus mutans, read-out: Adherence-inhibiting activity (AIP)

Structure (SMILES): CC1(C)CC[C@]2(C(=O)O)CC[C@]3(C)C(=CC[C@@H]4[C@@]5(C)CC[C@H](O)C(C)(C)[C@@H]5CC[C@]43C)[C@@H]2C1 [Oleanolic acid]
- Antibacterial activity (growth) ([1]; 10 μg/ml): -
- Antibacterial activity (growth) ([1]; 25 μg/ml): -
- Antibacterial activity (growth) ([1]; 50 μg/ml): -
- Antibacterial activity (growth) ([1]; 100 μg/ml): -
- Antibacterial activity (growth) ([1]; 200 μg/ml): -
- Antibacterial activity (growth) ([1]; 400 μg/ml): -
- MIC ([1]; KM338, Pseudomonas aeruginosa, BHI, 37° C., read-out: MIC (minimum inhibitory concentration)): > 400 µg/mL
- Antibacterial activity (growth) (Esherichia coli K12; 10 μg/ml): -
- Antibacterial activity (growth) (Esherichia coli K12; 25 μg/ml): -
- Antibacterial activity (growth) (Esherichia coli K12; 50 μg/ml): -
- Antibacterial activity (growth) (Esherichia coli K12; 100 μg/ml): -
- Antibacterial activity (growth) (Esherichia coli K12; 200 μg/ml): -
- Antibacterial activity (growth) (Esherichia coli K12; 400 μg/ml): -
- MIC (Esherichia coli K12; Esherichia coli, BHI, 37° C., read-out: MIC (minimum inhibitory concentration)): > 400 µg/mL
- Antibacterial activity (growth) ([2]; 10 μg/ml): -
- Antibacterial activity (growth) ([2]; 25 μg/ml): -
- Antibacterial activity (growth) ([2]; 50 μg/ml): -
- Antibacterial activity (growth) ([2]; 100 μg/ml): -
- Antibacterial activity (growth) ([2]; 200 μg/ml): -
- Antibacterial activity (growth) ([2]; 400 μg/ml): -
- MIC ([2]; 209P, Staphylococcus aureus, BHI, 37° C., read-out: MIC (minimum inhibitory concentration)): > 400 µg/mL
- Antibacterial activity (growth) ([3]; 10 μg/ml): -
- antibacterial activity at 10 μg/ml (in words) ([3]; 10 μg/ml): ineffective for exhibiting antibacterial activity
- Antibacterial activity (growth) ([3]; 25 μg/ml): -
- Antibacterial activity (growth) ([3]; 50 μg/ml): ±
- Antibacterial activity (growth) ([3]; 100 μg/ml): ±
- Antibacterial activity (growth) ([3]; 200 μg/ml): ±
- Antibacterial activity (growth) ([3]; 400 μg/ml): ±
- MIC ([3]; Streptococcus mutans, OMZ176, Streptococcus mutans OMZ 176, BHI, 37° C., read-out: MIC (minimum inhibitory concentration)): 400 µg/mL (≈ 876 µM)
- antibacterial activity to S. mutans (in words) [3]: also exhibit the selective activity on S. mutans, although the magnitude of the activity is each less than that of glycyrrthetic acid
- antibacterial activity to S. mutans (in words) ([3]; listed as oleanolic acid): have both of the adherence-inhibiting activity and the selective antibacterial activity to S. mutans; also recorded: have both activities
- minimal effective concentration ([4]; Streptococcus mutans, 20 h, read-out: concentration at which adherence of the bacterial cells is inhibited): 10 µg/mL
- inhibition at 10 µg/mL [4, 6]: > 50%
- inhibition at 20 µg/mL [4, 6]: > 50%
- inhibition at 30 µg/mL [4, 6]: > 50%
- inhibition at 50 µg/mL [4, 6]: > 50%
- inhibition at 100 µg/mL [4, 6]: > 50%
- adherence-inhibiting activity (in words) ([4]; text statement, listed as oleanolic acid): have both of the adherence-inhibiting activity and the selective antibacterial activity to S. mutans; also recorded: have both activities
- Antibacterial activity (growth) ([5]; 10 μg/ml): -
- Antibacterial activity (growth) ([5]; 25 μg/ml): -
- Antibacterial activity (growth) ([5]; 50 μg/ml): -
- Antibacterial activity (growth) ([5]; 100 μg/ml): -
- Antibacterial activity (growth) ([5]; 200 μg/ml): -
- Antibacterial activity (growth) ([5]; 400 μg/ml): -
- MIC ([5]; Priestia megaterium, QMB1551, Bacillus megaterium, BHI, 37° C., read-out: MIC (minimum inhibitory concentration)): > 400 µg/mL
